Test [1] has as its target segments of rabbit duodenum (Oryctolagus cuniculus, UniProt G1T803). The experiment in a line: Rabbit duodenal smooth muscle strip tissue bath assay (contractile response). Format: cell-based. To be noted: contractility; negative logarithm of dose giving 50% of maximal response to motilin; compounds tested 10^-11 to 10^-4 M. The protocol:
The experimental protocol consisted of an equilibration period of 1 hour: a challenge with 10^-4 M acetylcholine followed by a wash-out period; a cumulative dose-response curve of a compound with, at the end, the addition of 10^-7 M motilin; and finally 10^-4 M acetylcholine. If the final response to 10^-4 M acetylcholine differed by more than 5% from the initial response, the results were discarded.

Test [2] deals with T1, motilin receptor (rabbit antral smooth muscle membranes) (Oryctolagus cuniculus, UniProt G1T803).
T1 construct: from tissue; host or cells: rabbit antral smooth muscle membranes
The test can be described thus: Motilin receptor binding affinity: displacement of [125I-Tyr7,Nle13]motilin(porcine). Here is the method:
The motilin receptor binding affinity of the peptides of this invention was determined by using the general procedure of Bormans, Peelers and Vantrappen, Regul. Pept., 15, 143-153 (1986). The ability of the peptides to displace [^125 I-Tyr^7,Nle^13 ]motilin(porcine) bound to rabbit antral smooth muscle membranes, was determined by testing twice, each time in duplicate, at concentrations ranging from 10^-11 to 10^-4 M. The concentration displacing 50% of the label (IC50) was determined by fitting the data to the equation describing displacement, assuming a single class of motilin receptors to which labeled and non-labeled motilin bind with equal affinity and non-cooperatively. Fitting was performed using the iterative least-squares procedure of the SAS-software package (SAS Institute, Inc., Cary, N.C., U.S.A.). […] The concentration displacing 50% of the label is expressed using its negative logarithm (pIC50).
For orientation: Displacement assays read how much labelled ligand stays bound in the presence of the test substance.

[3] abbreviates: negative logarithm of concentration displacing 50% of [125I-Tyr7,Nle13]motilin(porcine) from rabbit antral smooth muscle membranes, read-out: pIC50 (converted).

The values that follow come from US5470830A, “Motilin-like polypeptides that inhibit gastrointestinal motor activity” (Ohmeda Pharmaceutical Products Division Inc., priority 1993, dated 1995).

Structures can show the parent of a compound that is named as a salt. Where two headings read alike, the source gives them in different places. Where a SMILES comes first, the peptide text is derived from it. Where no end group is shown, it is not given here. [ ]: non-standard residue; d: D form. Phe(4-I) = N[C@@H](Cc1ccc(I)cc1)C(=O)O; 2Nal = N[C@@H](Cc1ccc2ccccc2c1)C(=O)O; NMeF = CN[C@@H](Cc1ccccc1)C(=O)O; 2Thi = N[C@@H](Cc1cccs1)C(=O)O; Cha = N[C@@H](CC1CCCCC1)C(=O)O

Sequence of segments of rabbit duodenum (G1T803 1-400): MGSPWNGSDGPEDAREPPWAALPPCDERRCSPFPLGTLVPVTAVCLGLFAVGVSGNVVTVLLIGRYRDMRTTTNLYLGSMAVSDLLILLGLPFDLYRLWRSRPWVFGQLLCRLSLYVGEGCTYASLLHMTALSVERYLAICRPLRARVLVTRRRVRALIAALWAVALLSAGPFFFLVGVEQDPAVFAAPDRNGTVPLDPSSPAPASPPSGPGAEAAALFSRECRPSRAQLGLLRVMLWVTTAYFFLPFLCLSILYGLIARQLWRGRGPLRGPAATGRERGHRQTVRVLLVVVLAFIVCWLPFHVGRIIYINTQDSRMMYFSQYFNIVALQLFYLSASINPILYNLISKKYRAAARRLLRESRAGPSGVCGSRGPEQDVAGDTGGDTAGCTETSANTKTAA
T1 sequence (G1T803 1-400): as above

Take `CC[C@H](C)[C@H](NC(=O)[C@H](CC1CCCCC1)NC(=O)[C@@H](NC(=O)[C@@H](N)Cc1ccccc1)C(C)C)C(=O)N[C@@H](Cc1ccccc1)C(=O)N[C@H](C(=O)N[C@@H](Cc1ccc(O)cc1)C(=O)NCC(=O)N[C@@H](CCC(=O)O)C(=O)N[C@@H](CC(C)C)C(=O)N[C@@H](CCC(N)=O)C(=O)N[C@@H](CCCNC(=N)N)C(=O)N[C@@H](CC(C)C)C(=O)N[C@@H](CCC(N)=O)C(=O)O)[C@@H](C)O` [[Cha^3, Leu^13]pMOT(1-14), H-Phe-Val-Cha-Ile-Phe-Thr-Tyr-Gly-Glu-Leu-Gln-Arg-Leu-Gln-OH] (H-FV[Cha]IFTYGELQRLQ-OH): the pEC50 in test [1] was less than 4.5. Besides, the IC50 in test [2] (setting [3]) is 0.0209 µM.
“FVFIFTYGELQRLQEKERNKGQ [[Phe^3,Leu^13]pMOT, [3-Phenylalanine, 13-leucine]motilin (Porcine), Pentakis-trifluoroacetate Salt]”: the pEC50 in test [1] was less than 4.5. The compound further had an IC50 in test [2] of 0.000776 µM.
As for `CC[C@H](C)[C@H](NC(=O)[C@H](Cc1cccs1)NC(=O)[C@@H](NC(=O)[C@@H](N)Cc1ccccc1)C(C)C)C(=O)N[C@@H](Cc1ccccc1)C(=O)N[C@H](C(=O)N[C@@H](Cc1ccc(O)cc1)C(=O)NCC(=O)N[C@@H](CCC(=O)O)C(=O)N[C@@H](CC(C)C)C(=O)N[C@@H](CCC(N)=O)C(=O)N[C@@H](CCCNC(=N)N)C(=O)N[C@@H](CC(C)C)C(=O)N[C@@H](CCC(N)=O)C(=O)O)[C@@H](C)O` [[Thi^3, Leu^13]pMOT(1-14), H-Phe-Val-Thi-Ile-Phe-Thr-Tyr-Gly-Glu-Leu-Gln-Arg-Leu-Gln-OH] (H-FV[2Thi]IFTYGELQRLQ-OH), the pEC50 in test [1] is given as less than 4.5. Moreover, the IC50 in test [2] (setting [3]) is 0.0257 µM.
The matching figures for `CC[C@H](C)[C@H](NC(=O)[C@H](Cc1ccccc1)NC(=O)[C@@H](NC(=O)[C@H](N)Cc1ccccc1)C(C)C)C(=O)N[C@@H](Cc1ccccc1)C(=O)N[C@H](C(=O)N[C@@H](Cc1ccc(O)cc1)C(=O)NCC(=O)N[C@@H](CCC(=O)O)C(=O)N[C@@H](CC(C)C)C(=O)N[C@@H](CCC(N)=O)C(=O)N[C@@H](CCCNC(=N)N)C(=O)N[C@@H](CC(C)C)C(=O)N[C@@H](CCC(N)=O)C(=O)O)[C@@H](C)O` [[D-Phe^1, Phe^3, Leu^13]pMOT(1-14), H-D-Phe-Val-Phe-Ile-Phe-Thr-Tyr-Gly-Glu-Leu-Gln-Arg-Leu-Gln-OH] (H-[dF]VFIFTYGELQRLQ-OH): less than 4.5 and 0.229 µM.
In test [1], “FVIIFTYGELQRLQEKERNKGQ [[Ile^3, Leu^13]pMOT]” registered a negative-log EC50 (pEC50) of less than 4.5. The compound further showed an IC50 in test [2] of 0.0151 µM.
Regarding `CC[C@H](C)[C@H](NC(=O)[C@H](Cc1ccccc1)NC(=O)[C@@H](NC(=O)[C@@H](N)Cc1ccccc1)C(C)C)C(=O)N[C@@H](Cc1ccccc1)C(=O)N[C@H](C(=O)N[C@@H](Cc1ccc(O)cc1)C(=O)NCC(=O)N[C@@H](CCC(=O)O)C(=O)N[C@@H](CC(C)C)C(=O)N[C@@H](CCC(N)=O)C(=O)N[C@@H](CCCNC(=N)N)C(=O)N[C@@H](CC(C)C)C(=O)N[C@H](CCC(N)=O)C(N)=O)[C@@H](C)O` [H-Phe-Val-Phe-Ile-Phe-Thr-Tyr-Gly-Glu-Leu-Gln-Arg-Leu-D-Gln-NH2] (H-FVFIFTYGELQRL[dQ]-NH2), in test [1], the negative logarithm of the EC50 (pEC50) was less than 4.5. In addition, in test [2] (setting [3]), the IC50 was 0.000977 µM.
In test [1], `CC[C@H](C)[C@H](NC(=O)[C@H](Cc1ccccc1)NC(=O)[C@@H](NC(=O)[C@H](Cc1ccccc1)NC)C(C)C)C(=O)N[C@@H](Cc1ccccc1)C(=O)N[C@H](C(=O)N[C@@H](Cc1ccc(O)cc1)C(=O)NCC(=O)N[C@@H](CCC(=O)O)C(=O)N[C@@H](CC(C)C)C(=O)N[C@@H](CCC(N)=O)C(=O)N[C@@H](CCCNC(=N)N)C(=O)N[C@@H](CC(C)C)C(=O)N[C@@H](CCC(N)=O)C(=O)O)[C@@H](C)O` [[N--MePhe^1, Phe^3, Leu^3]pMOT(1-14), [1-N-Methylphenylalanine, 3-phenylalanine, 13-leucine] motilin-(1-14)-peptide (Porcine), Bis-trifluoroacetate Salt] (H-[NMeF]VFIFTYGELQRLQ-OH) showed a pEC50 of less than 4.5. The IC50 in test [2] (setting [3]) was 0.0107 µM.
The like results for “H-FVLIFTYGELQRLQ-OH [[Leu^3, Leu^13]pMOT(1-14), H-Phe-Val-Leu-Ile-Phe-Thr-Tyr-Gly-Glu-Leu-Gln-Arg-Leu-Gln-OH]” were, in that order, less than 4.5 and 0.178 µM.
The matching figures for `CC[C@H](C)[C@H](NC(=O)[C@H](Cc1ccc(I)cc1)NC(=O)[C@@H](NC(=O)[C@@H](N)Cc1ccccc1)C(C)C)C(=O)N[C@@H](Cc1ccccc1)C(=O)N[C@H](C(=O)N[C@@H](Cc1ccc(O)cc1)C(=O)NCC(=O)N[C@@H](CCC(=O)O)C(=O)N[C@@H](CC(C)C)C(=O)N[C@@H](CCC(N)=O)C(=O)N[C@@H](CCCNC(=N)N)C(=O)N[C@@H](CC(C)C)C(=O)N[C@@H](CCC(N)=O)C(=O)O)[C@@H](C)O` [[p-I-Phe^3, Leu^13]pMOT(1-14), H-Phe-Val-p-L-Phe-Ile-Phe-Thr-Tyr-Gly-Glu-Leu-Gln-Arg-Leu-Gln-OH] (H-FV[Phe(4-I)]IFTYGELQRLQ-OH): less than 4.5 and 0.0437 µM.
Compound `CC[C@H](C)[C@H](NC(=O)[C@H](Cc1ccc2ccccc2c1)NC(=O)[C@@H](NC(=O)[C@@H](N)Cc1ccccc1)C(C)C)C(=O)N[C@@H](Cc1ccccc1)C(=O)N[C@H](C(=O)N[C@@H](Cc1ccc(O)cc1)C(=O)NCC(=O)N[C@@H](CCC(=O)O)C(=O)N[C@@H](CC(C)C)C(=O)N[C@@H](CCC(N)=O)C(=O)N[C@@H](CCCNC(=N)N)C(=O)N[C@@H](CC(C)C)C(=O)N[C@@H](CCC(N)=O)C(=O)O)[C@@H](C)O` [[2-Nal^3, Leu^13]pMOT(1-14), H-Phe-Val-2-Nal-Ile-Phe-Thr-Tyr-Gly-Glu-Leu-Gln-Arg-Leu-Gln-OH] (H-FV[2Nal]IFTYGELQRLQ-OH) registered a negative logarithm of the EC50 (pEC50) in test [1] of less than 4.5. Also, in test [2] (setting [3]), the IC50 was 0.0275 µM.
The like results for `CC[C@H](C)[C@H](NC(=O)[C@@H](Cc1ccccc1)NC(=O)[C@@H](NC(=O)[C@@H](N)Cc1ccccc1)C(C)C)C(=O)N[C@@H](Cc1ccccc1)C(=O)N[C@H](C(=O)N[C@@H](Cc1ccc(O)cc1)C(=O)NCC(=O)N[C@@H](CCC(=O)O)C(=O)N[C@@H](CC(C)C)C(=O)N[C@@H](CCC(N)=O)C(=O)N[C@@H](CCCNC(=N)N)C(=O)N[C@@H](CC(C)C)C(=O)N[C@@H](CCC(N)=O)C(=O)O)[C@@H](C)O` [[D-Phe^3, Leu^13]pMOT(1-14), H-Phe-Val-D-Phe-Ile-Phe-Thr-Tyr-Gly-Glu-Leu-Gln-Arg-Leu-Gln-OH] (H-FV[dF]IFTYGELQRLQ-OH) were, in that order, less than 4.5 and 0.00813 µM.
The like results for `CC[C@H](C)[C@H](NC(=O)[C@H](Cc1ccccc1)NC(=O)[C@@H](NC(=O)[C@@H](N)Cc1ccccc1)C(C)C)C(=O)N[C@@H](CC1CCCCC1)C(=O)N[C@H](C(=O)N[C@@H](Cc1ccc(O)cc1)C(=O)NCC(=O)N[C@@H](CCC(=O)O)C(=O)N[C@@H](CC(C)C)C(=O)N[C@@H](CCC(N)=O)C(=O)N[C@@H](CCCNC(=N)N)C(=O)N[C@@H](CC(C)C)C(=O)N[C@@H](CCC(N)=O)C(=O)O)[C@@H](C)O` [[Phe^3, Cha^5, Leu^13]pMOT(1-14), H-Phe-Val-Phe-Ile-Cha-Thr-Tyr-Gly-Glu-Leu-Gln-Arg-Leu-Gln-OH] (H-FVFI[Cha]TYGELQRLQ-OH) were, in that order, less than 4.5 and 0.0251 µM.
The like results for “FVFIFTYGELQR-NH2 [[Phe^3 pMOT(1-12) amide, [3-Phenylalanine]motilin-(1-12)-peptide Amide (Porcine), Bis-trifluoroacetate Salt]” were, in that order, less than 4.5 and 0.0275 µM.
Take `CC[C@H](C)[C@H](NC(=O)[C@H](Cc1ccccc1)NC(=O)[C@@H](NC(=O)[C@@H](N)CC1CCCCC1)C(C)C)C(=O)N[C@@H](Cc1ccccc1)C(=O)N[C@H](C(=O)N[C@@H](Cc1ccc(O)cc1)C(=O)NCC(=O)N[C@@H](CCC(=O)O)C(=O)N[C@@H](CC(C)C)C(=O)N[C@@H](CCC(N)=O)C(=O)N[C@@H](CCCNC(=N)N)C(=O)N[C@@H](CC(C)C)C(=O)N[C@@H](CCC(N)=O)C(=O)O)[C@@H](C)O` [[Cha^1, Phe^3, Leu^13]pMOT(1-14), H-Cha-Val-Phe-Ile-Phe-Thr-Tyr-Gly-Glu-Leu-Gln-Arg-Leu-Gln-OH] (H-[Cha]VFIFTYGELQRLQ-OH): in test [1], the negative-log EC50 (pEC50) is reported as less than 4.5. Further, the IC50 in test [2] (setting [3]) is 0.0295 µM.
The like results for “H-FVFIATYGELQRLQ-OH [[Phe^3, Ala^5, Leu^13]pMOT(1-14), H-Phe-Val-Phe-Ile-Ala-Thr-Tyr-Gly-Glu-Leu-Gln-Arg-Leu-Gln-OH]” were, in that order, less than 4.5 and 0.0158 µM.
The matching figures for “H-FVFLFTYGELQRLQ-OH [[Phe^3, Leu^4, Leu^13]pMOT(1-14), H-Phe-Val-Phe-Leu-Phe-Thr-Tyr-Gly-Glu-Leu-Gln-Arg-Leu-Gln-OH]”: less than 4.5 and 0.00398 µM.
In test [1], “H-FVFIFTFGELQRLQ-OH [[Phe^3, Phe^7, Leu^13]pMOT(1-14), H-Phe-Val-Phe-Ile-Phe-Thr-Phe-Gly-Glu-Leu-Gln-Arg-Leu-Gln-OH]” yielded a pEC50 of less than 4.5. For the same compound, the IC50 in test [2] (setting [3]) is 0.0309 µM.

The term pEC50 denotes the negative decadic logarithm of the EC50, by convention in mol/L. High values mean a low EC50, low ones a high EC50.
